Laboratory results from patent publication US7019109B2, “SSTR1-selective analogs” (The Salk Institute for Bilogical Studies, priority 2001, dated 2006).
Where two headings read alike, the source gives them in different places. *1 amine or outer side, *2 acyl side, *3 side chain or, on linkers, in order; H or OH if unused. Where a SMILES comes first, the peptide text is derived from it. Bridges are numbered along the chain shown (N, C = ends). [ ]: non-standard residue; d: D form. NMePhe(4-CH2NHiPr) = CN[C@@H](Cc1ccc(CNC(C)C)cc1)C(=O)O; Phe(4-CH2NHiPr) = CC(C)NCc1ccc(C[C@H](N)C(=O)O)cc1; Tyr(3-I) = N[C@@H](Cc1ccc(O)c(I)c1)C(=O)O; X1 = NC(=O)N[C@@H](CS[*:2])C(=O)[*:1]; d2Nal = N[C@H](Cc1ccc2ccccc2c1)C(=O)O

What was measured:
Assay type in all cases: binding
[1] = target: T1, human SSTR4 (Homo sapiens, UniProt P31391); assay: Displacement of 125I-[Leu8,D-Trp22,Tyr25]-SRIF-28 from cloned SSTR4 (receptor autoradiography)
T1 construct: expressed in transfected cells; host or cells: CHO-K1 cells and CCL39 cells
T1 sequence (P31391 whole entry): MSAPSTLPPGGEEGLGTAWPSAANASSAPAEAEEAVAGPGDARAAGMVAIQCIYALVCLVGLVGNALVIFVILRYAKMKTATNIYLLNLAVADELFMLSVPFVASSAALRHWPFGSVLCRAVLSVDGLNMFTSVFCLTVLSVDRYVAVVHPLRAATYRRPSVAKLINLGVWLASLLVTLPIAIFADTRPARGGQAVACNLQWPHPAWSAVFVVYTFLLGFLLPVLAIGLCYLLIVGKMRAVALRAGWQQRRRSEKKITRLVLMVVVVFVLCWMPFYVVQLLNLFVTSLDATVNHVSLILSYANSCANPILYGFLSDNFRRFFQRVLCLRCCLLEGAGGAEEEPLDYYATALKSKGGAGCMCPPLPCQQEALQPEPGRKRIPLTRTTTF
Method: (§1) Generally, recombinant cells expressing the receptor are washed and homogenized to prepare a crude protein homogenate that is frozen, embedded and then cut in 10–20 μm thin sections, as known in this art. Candidate substances, such as potential SRIF agonists and antagonists, are incubated with the tissue sections, and the interaction between the candidate substance and the receptor polypeptide is monitored.
(§2) Receptor binding assays are performed on cloned SRIF receptors as generally set forth in Reubi, J. C. et al., J. Clin. Endocrinol. […] Med. 2000, 27, 273–282.
(§3) In vitro Bioassay: The various somatostatin analogs are tested in vitro for their ability to bind to isolated cloned receptors expressed on CHO-K1 cells and CCL39 cells. CHO-K1 cells are grown in Ham's F-12 medium, and CCL39 cells are grown in Dulbecco's modified Eagle's medium/Ham's F-12(1:1) mix, supplemented with 10% fetal bovine serum, 100 U/ml penicillin and 100 μg/ml streptomycin, in humidified air containing 5% CO2 at 37° C.
(§4) Cells are washed and prepared to produce homogenates as described in detail in Reubi, J. C. et al, Eur. J. Nucl. Med. 2000, 27, 273–282.
(§5) Receptor autoradiography is performed on 20 μm thick cryostat sections of the membrane pellets, mounted on microscope slides, and then stored at −20° C. […] Increasing concentrations of the unlabeled peptide are used ranging from 0.1–1000 nM. […] IC50 values are calculated after quantification of the data using a computer-assisted image processing system as known in this art.

[2] = target: T2, human SSTR1 (Homo sapiens, UniProt P30872); assay: Displacement of 125I-[Leu8,D-Trp22,Tyr25]-SRIF-28 from cloned SSTR1 (receptor autoradiography); details: for binding strength and selectivity for SSTR1, in words: Peptide No. 27 and 2A after iodination
T2 construct: expressed in transfected cells; host or cells: CHO-K1 cells and CCL39 cells
T2 sequence (P30872 whole entry): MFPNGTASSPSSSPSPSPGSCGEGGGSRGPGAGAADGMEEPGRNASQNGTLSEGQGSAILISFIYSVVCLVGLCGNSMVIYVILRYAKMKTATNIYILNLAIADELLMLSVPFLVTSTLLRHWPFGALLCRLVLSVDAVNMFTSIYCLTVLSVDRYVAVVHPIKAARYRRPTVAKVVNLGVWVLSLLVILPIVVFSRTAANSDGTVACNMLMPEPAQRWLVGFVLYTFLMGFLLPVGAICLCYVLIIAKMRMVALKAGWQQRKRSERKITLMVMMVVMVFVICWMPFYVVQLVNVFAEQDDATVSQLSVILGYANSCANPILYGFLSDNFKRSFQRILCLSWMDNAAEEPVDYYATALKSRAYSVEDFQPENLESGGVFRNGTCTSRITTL
Method: as §1, §2, §3, §4, §5

[3] = target: T3, human SSTR3 (Homo sapiens, UniProt P32745); assay: Displacement of 125I-[Leu8,D-Trp22,Tyr25]-SRIF-28 from cloned SSTR3 (receptor autoradiography); details: for effect on binding of the SRIF-28 radioligand to human SSTR3: at concentrations of 100 nM
T3 construct: expressed in transfected cells; host or cells: CHO-K1 cells and CCL39 cells
T3 sequence (P32745 whole entry): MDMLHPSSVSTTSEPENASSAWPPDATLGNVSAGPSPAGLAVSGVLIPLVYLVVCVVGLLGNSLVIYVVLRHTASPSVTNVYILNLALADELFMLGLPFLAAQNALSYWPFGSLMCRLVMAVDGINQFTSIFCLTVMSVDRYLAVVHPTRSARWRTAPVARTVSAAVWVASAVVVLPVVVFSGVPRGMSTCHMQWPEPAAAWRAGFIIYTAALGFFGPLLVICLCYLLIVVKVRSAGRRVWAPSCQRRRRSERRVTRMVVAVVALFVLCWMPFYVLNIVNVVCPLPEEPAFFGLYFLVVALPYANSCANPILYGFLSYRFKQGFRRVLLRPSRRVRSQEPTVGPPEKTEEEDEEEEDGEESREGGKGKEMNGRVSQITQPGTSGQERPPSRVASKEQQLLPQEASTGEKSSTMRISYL
Method: as §1, §2, §3, §4, §5

[4] = target: T4, human SSTR2 (Homo sapiens, UniProt P30874); assay: Displacement of 125I-[Leu8,D-Trp22,Tyr25]-SRIF-28 from cloned SSTR2 (receptor autoradiography)
T4 construct: expressed in transfected cells; host or cells: CHO-K1 cells and CCL39 cells
T4 sequence (P30874 whole entry): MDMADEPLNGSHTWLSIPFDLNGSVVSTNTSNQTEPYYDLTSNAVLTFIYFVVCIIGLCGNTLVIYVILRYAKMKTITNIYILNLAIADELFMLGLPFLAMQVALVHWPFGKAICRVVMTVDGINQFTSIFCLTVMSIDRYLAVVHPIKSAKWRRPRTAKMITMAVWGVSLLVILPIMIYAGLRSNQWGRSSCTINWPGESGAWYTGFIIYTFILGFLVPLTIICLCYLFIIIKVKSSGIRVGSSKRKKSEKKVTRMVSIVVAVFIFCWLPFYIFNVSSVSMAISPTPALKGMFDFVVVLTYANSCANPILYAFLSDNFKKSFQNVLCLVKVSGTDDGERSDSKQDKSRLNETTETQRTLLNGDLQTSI
Method: as §1, §2, §3, §4
(§6) Receptor autoradiography is performed on 20 μm thick cryostat sections of the membrane pellets, mounted on microscope slides, and then stored at −20° C. […] […] […] IC50 values are calculated after quantification of the data using a computer-assisted image processing system as known in this art.

[5] = target: T5, human SSTR5 (Homo sapiens, UniProt P35346); assay: Displacement of 125I-[Leu8,D-Trp22,Tyr25]-SRIF-28 from cloned SSTR5 (receptor autoradiography)
T5 construct: expressed in transfected cells; host or cells: CHO-K1 cells and CCL39 cells
T5 sequence (P35346 whole entry): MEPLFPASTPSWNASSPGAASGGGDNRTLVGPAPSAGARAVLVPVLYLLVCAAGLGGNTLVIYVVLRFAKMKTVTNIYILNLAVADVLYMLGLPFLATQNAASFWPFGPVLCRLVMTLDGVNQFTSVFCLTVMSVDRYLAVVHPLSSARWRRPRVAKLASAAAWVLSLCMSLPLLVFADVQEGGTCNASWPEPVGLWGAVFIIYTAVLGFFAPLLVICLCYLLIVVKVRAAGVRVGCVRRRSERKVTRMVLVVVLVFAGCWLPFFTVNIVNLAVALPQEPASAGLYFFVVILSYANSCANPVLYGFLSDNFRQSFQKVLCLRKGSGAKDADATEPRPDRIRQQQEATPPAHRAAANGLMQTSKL
Method: as §1, §2, §3, §4, §6

[6] = inhibition of radioligand binding of 125I-[Leu8,D-Trp22,Tyr24]SRIF-28, cloned receptor, table, read-out: IC50 (nM) mSSTR4
[7] = displacement of iodinated SRIF-28 radioligand, read-out: IC50 / binding affinity at human SSTR1
[8] = inhibition of radioligand binding of 125I-[Leu8,D-Trp22,Tyr24]SRIF-28, cloned receptor, table, read-out: IC50 (nM) mSSTR1
[9] = inhibition of radioligand binding of 125I-[Leu8,D-Trp22,Tyr24]SRIF-28, cloned receptor, table, read-out: IC50 (nM) mSSTR5
[10] = read-out: concentration below which no binding to SSTR5
[11] = inhibition of radioligand binding of 125I-[Leu8,D-Trp22,Tyr24]SRIF-28, cloned receptor, table, read-out: IC50 (nM) mSSTR2
[12] = read-out: concentration below which no binding to SSTR2

IC50 [1, 6]	effect on binding of the SRIF-28 radioligand to human SSTR3 [3]	IC50 ([4]; read-out: IC50 (nM) mSSTR2)	IC50 ([1]; read-out: IC50 (nM) mSSTR4)	IC50 [2, 7]	IC50 [2, 8]	IC50 ([3]; read-out: IC50 (nM) mSSTR3)	IC50 [5, 9]	IC50 [5, 10]	IC50 [4, 11]	IC50 [4, 12]	IC50 ([5]; read-out: IC50 (nM) mSSTR5)	SMILES	binding strength and selectivity for SSTR1, in words [2]	further results
> 1000 nM	–	–	–	~21 nM	24.5 nM	–	> 10000 nM	> 10000 nM	> 10000 nM	> 10000 nM	–	CC(C)NCc1ccc(C[C@H]2C(=O)N[C@@H]([C@@H](C)O)C(=O)N[C@@H](Cc3ccc(O)cc3)C(=O)N[C@@H]([C@@H](C)O)C(=O)N[C@@H](CO)C(=O)N[C@H](C(=O)O)CSSC[C@H](N)C(=O)N[C@@H](CCCCN)C(=O)N[C@@H](Cc3ccccc3)C(=O)N[C@@H](Cc3ccccc3)C(=O)N[C@H](Cc3ccc4ccccc4c3)C(=O)N2C)cc1 [Peptide No. 9A, (cyclo)H-Cys-Lys-Phe-Phe-D-2Nal-N^αMeIAmp-Thr-Tyr-Thr-Ser-Cys-OH] (H-CKFF[d2Nal][NMePhe(4-CH2NHiPr)]TYTSC-OH; disulfide 1-11)	–	IC50 ([1]; read-out: concentration below which no binding to SSTR4): > 10000 nM; IC50 ([3]; inhibition of radioligand binding of 125I-[Leu8,D-Trp22,Tyr24]SRIF-28, cloned receptor, table, read-out: IC50 (nM) mSSTR3): > 1000 nM; IC50 ([3]; read-out: concentration below which no binding to SSTR3): > 1000 nM
–	–	> 10000 nM	> 1000 nM	–	43 nM	> 1000 nM	–	–	–	–	> 10000 nM	CC(C)NCc1ccc(C[C@H]2C(=O)N[C@@H]([C@@H](C)O)C(=O)N[C@@H](Cc3ccc(O)cc3)C(=O)N[C@@H]([C@@H](C)O)C(=O)N[C@@H](CO)C(=O)N[C@H](C(=O)O)CSSC[C@H](NC(N)=O)C(=O)N[C@@H](CCCCN)C(=O)N[C@@H](Cc3ccccc3)C(=O)N[C@@H](Cc3ccccc3)C(=O)N[C@H](Cc3c[nH]c4ccccc34)C(=O)N2C)cc1 [Peptide No. 12, (cyclo)CbmCys-Lys-Phe-Phe-D-Trp-N^αMeIAmp-Thr-Tyr-Thr-Ser-Cys-OH] (KFF[dW][NMePhe(4-CH2NHiPr)]TYTSC-OH; linker N-10 via X1)	good selectivity with good binding strength	–
–	–	> 10000 nM	> 1000 nM	8.1 nM	–	> 1000 nM	–	–	–	–	> 1000 nM	CC(C)NCc1ccc(C[C@@H]2NC(=O)[C@@H](Cc3c[nH]c4ccccc34)NC(=O)[C@H](Cc3ccccc3)NC(=O)[C@H](Cc3ccccc3)NC(=O)[C@H](CCCCN)NC(=O)[C@@H](NC(N)=O)CSSC[C@@H](C(=O)O)NC(=O)[C@H](CO)NC(=O)[C@H]([C@@H](C)O)NC(=O)[C@H](Cc3ccc(O)cc3)NC(=O)[C@H]([C@@H](C)O)NC2=O)cc1 [Peptide No. 12A, (cyclo)CbmCys-Lys-Phe-Phe-D-Trp-IAmp-Thr-Tyr-Thr-Ser-Cys-OH] (KFF[dW][Phe(4-CH2NHiPr)]TYTSC-OH; linker N-10 via X1)	–	–

The remaining lines, values behind:

SMILES	IC50 [1, 6]	effect on binding of the SRIF-28 radioligand to human SSTR3 [3]	IC50 ([4]; read-out: IC50 (nM) mSSTR2)	IC50 ([1]; read-out: IC50 (nM) mSSTR4)	IC50 [2, 7]	IC50 [2, 8]	IC50 ([3]; read-out: IC50 (nM) mSSTR3)	IC50 [5, 9]	IC50 [5, 10]	IC50 [4, 11]	IC50 [4, 12]	IC50 ([5]; read-out: IC50 (nM) mSSTR5)	binding strength and selectivity for SSTR1, in words [2]	further results
CC(C)NCc1ccc(C[C@@H]2NC(=O)[C@@H](Cc3c[nH]c4ccccc34)NC(=O)[C@H](Cc3ccccc3)NC(=O)[C@H](Cc3ccccc3)NC(=O)[C@H](CCCCN)NC(=O)[C@@H](N)CSSC[C@@H](C(=O)O)NC(=O)[C@H](CO)NC(=O)[C@H]([C@@H](C)O)NC(=O)[C@H](Cc3ccc(O)cc3)NC(=O)[C@H]([C@@H](C)O)NC2=O)cc1 [2A, (cyclo)H-Cys-Lys-Phe-Phe-D-Trp-IAmp-Thr-Tyr-Thr-Ser-Cys-OH] (H-CKFF[dW][Phe(4-CH2NHiPr)]TYTSC-OH; disulfide 1-11)	> 10000 nM	even less effect	> 10000 nM	–	–	–	–	–	–	–	–	–	continues to bind strongly	–
CC(C)NCc1ccc(C[C@H]2C(=O)N[C@@H]([C@@H](C)O)C(=O)N[C@@H](Cc3ccc(O)cc3)C(=O)N[C@@H]([C@@H](C)O)C(=O)N[C@@H](CO)C(=O)N[C@H](C(=O)O)CSSC[C@H](N)C(=O)N[C@@H](CCCCN)C(=O)N[C@@H](Cc3ccccc3)C(=O)N[C@@H](Cc3ccccc3)C(=O)N[C@H](Cc3c[nH]c4ccccc34)C(=O)N2C)cc1 [Peptide No. 2, (cyclo)H-Cys-Lys-Phe-Phe-D-Trp-N^αMeIAmp-Thr-Tyr-Thr-Ser-Cys-OH] (H-CKFF[dW][NMePhe(4-CH2NHiPr)]TYTSC-OH; disulfide 1-11)	–	minimal effects	–	> 1000 nM	~6.1 nM	7.2 nM	> 1000 nM	> 10000 nM	> 10000 nM	> 10000 nM	> 10000 nM	–	–	binding to SSTR4, in words ([1]; Peptide No. 27 iodinated): does not bind strongly; effect on binding of the SRIF-28 radioligand to human SSTR4 ([1]; at concentrations of 100 nM): minimal effects; binding to SSTR3, in words ([3]; Peptide No. 27 iodinated): does not bind strongly; effect on binding of the SRIF-28 radioligand to human SSTR5 ([5]; at concentrations of 100 nM): minimal effects; effect on binding of the SRIF-28 radioligand to human SSTR2 ([4]; at concentrations of 100 nM): minimal effects
CC(C)NCc1ccc(C[C@@H]2NC(=O)[C@@H](Cc3c[nH]c4ccccc34)NC(=O)[C@H](Cc3ccccc3)NC(=O)[C@H](Cc3ccccc3)NC(=O)[C@H](CCCCN)NC(=O)[C@@H](N)CSSC[C@@H](C(=O)O)NC(=O)[C@H](CO)NC(=O)[C@H]([C@@H](C)O)NC(=O)[C@H](Cc3ccc(O)c(I)c3)NC(=O)[C@H]([C@@H](C)O)NC2=O)cc1 [Peptide No. 2B] (H-CKFF[dW][Phe(4-CH2NHiPr)]T[Tyr(3-I)]TSC-OH; disulfide 1-11)	–	–	> 10000 nM	–	–	–	–	–	–	–	–	–	–	–
